# Data taken from PMC9297976 (Journal of Applied Toxicology, 2021).
# Assays:
# medaka Esr1 (mEsr1) [1] = biological target: T1, medaka Esr1 (mEsr1) (Oryzias latipes, UniProt P50241); assay: cell-based; set-up: species or system Japanese medaka (Oryzias latipes); details: mode of action in which EC50 or PC10 was obtained in RGA
# T1 sequence (P50241 1-620): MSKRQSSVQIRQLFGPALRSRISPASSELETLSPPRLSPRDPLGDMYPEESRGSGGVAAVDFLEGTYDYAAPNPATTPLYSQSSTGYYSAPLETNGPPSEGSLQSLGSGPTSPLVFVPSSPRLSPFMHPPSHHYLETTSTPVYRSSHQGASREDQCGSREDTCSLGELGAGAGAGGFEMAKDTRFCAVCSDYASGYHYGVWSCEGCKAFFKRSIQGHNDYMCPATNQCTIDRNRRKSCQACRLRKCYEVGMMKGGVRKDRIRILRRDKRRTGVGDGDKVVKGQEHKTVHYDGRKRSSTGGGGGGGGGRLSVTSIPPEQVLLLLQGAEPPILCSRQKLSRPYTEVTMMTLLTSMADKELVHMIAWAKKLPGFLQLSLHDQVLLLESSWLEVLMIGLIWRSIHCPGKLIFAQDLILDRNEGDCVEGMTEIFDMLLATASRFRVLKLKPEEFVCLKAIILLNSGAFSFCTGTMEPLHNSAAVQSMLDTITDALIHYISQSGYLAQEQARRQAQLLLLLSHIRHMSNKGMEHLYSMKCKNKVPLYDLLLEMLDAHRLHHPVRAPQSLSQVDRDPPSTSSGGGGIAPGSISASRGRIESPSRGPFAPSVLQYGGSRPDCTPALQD
# [2] = test system: Japanese medaka (Oryzias latipes); assay: Fish Short‐Term Reproduction Assay; assay type: in vivo; details: for GSI Female / GSI Male / HSI Female / HSI Male / Length Female / Length Male / Weight Female / Weight Male: completion of exposure
# medaka Esr1 (mEsr1) [3] = biological target: T1, medaka Esr1 (mEsr1); assay: Medaka Esr1 reporter gene assay, antagonist assay; assay type: cell-based, Japanese medaka (Oryzias latipes); details: E2 spiked at 1.0 nM (B); MAC = 1.0 × 10^−5 M
# medaka ARβ (mArβ) [4] = biological target: T2, medaka ARβ (mArβ) (Oryzias latipes, UniProt D1MV73); assay: Medaka ARβ reporter gene assay, antagonist assay; assay type: cell-based, Japanese medaka (Oryzias latipes)
# T2 sequence (D1MV73 1-744): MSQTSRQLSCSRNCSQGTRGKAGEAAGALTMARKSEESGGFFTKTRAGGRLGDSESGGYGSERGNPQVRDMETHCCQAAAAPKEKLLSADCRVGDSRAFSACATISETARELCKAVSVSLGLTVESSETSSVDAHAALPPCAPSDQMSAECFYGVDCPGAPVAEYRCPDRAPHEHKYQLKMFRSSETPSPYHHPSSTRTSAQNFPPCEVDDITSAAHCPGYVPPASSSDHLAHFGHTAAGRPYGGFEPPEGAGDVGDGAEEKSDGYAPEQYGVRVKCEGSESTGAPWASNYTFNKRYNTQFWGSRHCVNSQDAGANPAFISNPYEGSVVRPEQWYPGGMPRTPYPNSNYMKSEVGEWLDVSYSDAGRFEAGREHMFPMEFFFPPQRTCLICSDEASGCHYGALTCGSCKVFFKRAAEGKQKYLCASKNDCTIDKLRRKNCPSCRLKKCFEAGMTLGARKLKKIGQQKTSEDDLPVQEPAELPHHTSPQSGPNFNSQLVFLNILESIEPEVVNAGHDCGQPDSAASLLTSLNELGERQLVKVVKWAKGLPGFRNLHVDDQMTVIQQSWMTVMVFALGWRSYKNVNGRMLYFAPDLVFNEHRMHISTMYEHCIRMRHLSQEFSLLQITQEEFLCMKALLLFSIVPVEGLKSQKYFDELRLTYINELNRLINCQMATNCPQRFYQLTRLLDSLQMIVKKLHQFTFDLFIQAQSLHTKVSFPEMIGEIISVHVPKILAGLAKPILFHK
# Japanese medaka = details: 12 h after fertilization to 101 days of age; ref Seki, Yokota, Matsubara, et al. (2003); cited from earlier work
# medaka ARβ (mArβ) [5] = biological target: T2, medaka ARβ (mArβ); assay: Medaka ARβ reporter gene assay, agonist assay; assay type: cell-based, Japanese medaka (Oryzias latipes); details: MAC = 1.0 × 10^−4 M
# [6] = 940 μg/L measured, 21 d, sig. ↓ vs control
# [7] = measured concentration 58.4 μg/L
# [8] = measured concentration 227 μg/L
# [9] = measured concentration 940 μg/L
compound,measurement,setting,value
"CCC(C)(C)c1ccc(O)cc1 [Chemical 4tPP, 4‐tert‐Pentylphenol]",In vitro positive: Esr,medaka Esr1 (mEsr1) [1],Esr
same,Fertility rate,"[2]; 58.4 μg/L measured, 21 d",94 ± 1.7%
same,"Hepatic VTG, female","[2]; 58.4 μg/L measured, 21 d","2,930 ± 737 ng/mg‐liver"
same,Mortality,"[2]; 58.4 μg/L measured, 21 d",4.2%
same,"Mortality, number of dead fish","[2]; 58.4 μg/L measured, 21 d",1
same,Number of fertilized eggs (per female per day),"[2]; 58.4 μg/L measured, 21 d",20 ± 3.2
same,Number of total eggs (per female per day),"[2]; 58.4 μg/L measured, 21 d",21 ± 3.1
same,SSC female (joint plates with papillary processes),"[2]; 58.4 μg/L measured, 21 d",0 ± 0
same,"Hepatic VTG, male","[2]; 58.4 μg/L measured, 21 d, sig. ↑ vs control",970 ± 858 ng/mg‐liver
same,Fertility rate,"[2]; 227 μg/L measured, 21 d",94 ± 2.5%
same,"Hepatic VTG, female","[2]; 227 μg/L measured, 21 d","3,070 ± 686 ng/mg‐liver"
same,Mortality,"[2]; 227 μg/L measured, 21 d",4.2%
same,"Mortality, number of dead fish","[2]; 227 μg/L measured, 21 d",1
same,Number of fertilized eggs (per female per day),"[2]; 227 μg/L measured, 21 d",19 ± 2.9
same,Number of total eggs (per female per day),"[2]; 227 μg/L measured, 21 d",20 ± 2.7
same,SSC female (joint plates with papillary processes),"[2]; 227 μg/L measured, 21 d",0 ± 0
same,"Hepatic VTG, male","[2]; 227 μg/L measured, 21 d, sig. ↑ vs control","3,700 ± 2,300 ng/mg‐liver"
same,Fertility rate,"[2]; 940 μg/L measured, 21 d",81 ± 8.9%
same,Mortality,"[2]; 940 μg/L measured, 21 d",13%
same,"Mortality, number of dead fish","[2]; 940 μg/L measured, 21 d",3
same,SSC female (joint plates with papillary processes),"[2]; 940 μg/L measured, 21 d",0 ± 0
same,"Hepatic VTG, female","[2]; 940 μg/L measured, 21 d, sig. ↑ vs control","8,100 ± 3,340 ng/mg‐liver"
same,Number of fertilized eggs (per female per day),[2]; [6],13 ± 3.5
same,Number of total eggs (per female per day),[2]; [6],16 ± 4.7
same,Change of hepatic VTG levels in females (in words),[2]; 21 d,significant increase
same,"Fecundity, number of total eggs (in words)",[2]; 21 d,statistically significant decrease
same,"LOEC, elevated hepatic VTG in males",[2]; 21 d,58.4 µg/L
same,LOECREPRO,[2]; LOEC on reproduction (fecundity and/or fertility),940 µg/L
same,minimal effective concentration,"[2]; Oryzias latipes, 504 h, read-out: LOECmVTG",0.0584 µg/mL
same,Fertility rate (in words),[2]; chemicals with significant decrease of number of total eggs,no significant effect
same,LOECREPRO (reduction in fecundity or fertility),[2]; concentrations without overt toxicity,940 µg/L
same,LOECTOX,[2]; lowest observed effect concentration on mortality,ND (>940) μg/L
same,GSI Female,[2]; [7],10.0 ± 0.6%
same,GSI Male,[2]; [7],0.89 ± 0.11%
same,HSI Female,[2]; [7],4.3 ± 0.50%
same,HSI Male,[2]; [7],2.3 ± 0.18%
same,Length Female,[2]; [7],36.0 ± 0.5 mm
same,Length Male,[2]; [7],37.8 ± 1.2 mm
same,Weight Female,[2]; [7],558 ± 48 mg
same,Weight Male,[2]; [7],590 ± 39 mg
same,GSI Female,[2]; [8],9.9 ± 1.0%
same,GSI Male,[2]; [8],0.73 ± 0.16%
same,HSI Female,[2]; [8],4.2 ± 0.44%
same,HSI Male,[2]; [8],2.2 ± 0.33%
same,Length Female,[2]; [8],35.5 ± 0.7 mm
same,Length Male,[2]; [8],36.2 ± 0.6 mm
same,Weight Female,[2]; [8],523 ± 48 mg
same,Weight Male,[2]; [8],546 ± 23 mg
same,GSI Female,[2]; [9],8.9 ± 1.2%
same,GSI Male,[2]; [9],0.73 ± 0.13%
same,HSI Female,[2]; [9],3.9 ± 0.73%
same,HSI Male,[2]; [9],3.6 ± 0.50%
same,Length Female,[2]; [9],36.1 ± 1.6 mm
same,Length Male,[2]; [9],35.6 ± 0.8 mm
same,Weight Female,[2]; [9],588 ± 130 mg
same,Weight Male,[2]; [9],509 ± 47 mg
same,Antagonistic activity,medaka Esr1 (mEsr1) [3],NE (MAC = 1.0 × 10^−5 M)^(B)
same,Antagonistic activity IC30,medaka ARβ (mArβ) [4]; 11‐KT spiked at 50 nM (D),IC30 = 1.7 × 10^−5 M^(D)
same,In vitro positive: aAr,medaka ARβ (mArβ) [4]; mode of action in which IC50 or IC30 was obtained in RGA,aAr
same,Antagonistic activity on mArβ (in words),medaka ARβ (mArβ) [4]; transcriptional activity on mArβ by 11KT,inhibitory potency
same,LOEC on abnormal sexual differentiation,Japanese medaka,224 µg/L
same,LOEC on hepatic VTG induction,Japanese medaka,≤ 51.1 µg/L
same,LOEC on reproductive impairment,Japanese medaka,224 µg/L
same,Agonistic activity,medaka ARβ (mArβ) [5],NE (MAC = 1.0 × 10^−4 M)
